One may read the IC50 as the concentration needed to halve the response being measured. High values mean a need for much substance, low ones inhibition by little substance. As usually defined, the inhibition in vivo is the relative decrease from the control value, in per cent. Low readings indicate a weak effect, high ones a strong effect. The ED50 is the midpoint of the dose-response relation. The low end stands for greater potency, the high end for weaker potency.

Our source for the IC50, inhibition in vivo and ED50 values is ChEMBL document CHEMBL1127849, “Benzisoxazole- and benzisothiazole-3-carboxamides as potential atypical antipsychotic agents” (J Med Chem, 1994).

For assay [1], the target named is T1, 5-hydroxytryptamine receptor 1A (Rattus norvegicus, UniProt P19327).
T1 sequence (P19327 whole entry): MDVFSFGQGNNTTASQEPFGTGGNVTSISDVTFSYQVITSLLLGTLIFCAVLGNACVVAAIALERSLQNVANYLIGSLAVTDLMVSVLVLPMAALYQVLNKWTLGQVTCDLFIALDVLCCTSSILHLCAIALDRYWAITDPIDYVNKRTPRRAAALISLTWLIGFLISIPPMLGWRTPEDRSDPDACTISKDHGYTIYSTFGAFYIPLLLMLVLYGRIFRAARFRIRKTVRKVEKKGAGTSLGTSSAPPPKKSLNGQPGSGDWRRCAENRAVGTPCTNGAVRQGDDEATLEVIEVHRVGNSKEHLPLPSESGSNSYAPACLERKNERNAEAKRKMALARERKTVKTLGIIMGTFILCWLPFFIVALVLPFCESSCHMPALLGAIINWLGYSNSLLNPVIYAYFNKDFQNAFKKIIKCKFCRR
The assay can be described thus: In vitro affinity towards 5-hydroxytryptamine 1A receptor using [3H]8-OH-DPAT as radioligand in hippocampus. It counts as tissue-based.

Assay [2] deals with T2, Adrenergic receptor alpha-1 (Rattus norvegicus, UniProt P15823+P23944+P43140).
T2 sequence (P15823 whole entry): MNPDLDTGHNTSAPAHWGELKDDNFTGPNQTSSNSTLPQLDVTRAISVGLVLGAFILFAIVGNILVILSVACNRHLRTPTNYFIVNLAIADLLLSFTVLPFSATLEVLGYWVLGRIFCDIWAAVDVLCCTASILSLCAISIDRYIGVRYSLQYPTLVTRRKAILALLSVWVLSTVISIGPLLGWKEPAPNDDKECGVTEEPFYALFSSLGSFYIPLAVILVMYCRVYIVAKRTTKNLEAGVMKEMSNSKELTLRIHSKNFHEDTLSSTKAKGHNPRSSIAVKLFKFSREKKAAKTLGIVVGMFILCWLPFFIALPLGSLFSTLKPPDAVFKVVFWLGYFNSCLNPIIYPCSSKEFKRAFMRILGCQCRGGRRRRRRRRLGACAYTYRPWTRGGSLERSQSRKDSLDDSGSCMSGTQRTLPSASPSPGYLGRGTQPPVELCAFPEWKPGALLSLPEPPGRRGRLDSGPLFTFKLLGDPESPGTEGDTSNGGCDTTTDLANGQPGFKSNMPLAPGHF
T2 sequence (P23944 whole entry): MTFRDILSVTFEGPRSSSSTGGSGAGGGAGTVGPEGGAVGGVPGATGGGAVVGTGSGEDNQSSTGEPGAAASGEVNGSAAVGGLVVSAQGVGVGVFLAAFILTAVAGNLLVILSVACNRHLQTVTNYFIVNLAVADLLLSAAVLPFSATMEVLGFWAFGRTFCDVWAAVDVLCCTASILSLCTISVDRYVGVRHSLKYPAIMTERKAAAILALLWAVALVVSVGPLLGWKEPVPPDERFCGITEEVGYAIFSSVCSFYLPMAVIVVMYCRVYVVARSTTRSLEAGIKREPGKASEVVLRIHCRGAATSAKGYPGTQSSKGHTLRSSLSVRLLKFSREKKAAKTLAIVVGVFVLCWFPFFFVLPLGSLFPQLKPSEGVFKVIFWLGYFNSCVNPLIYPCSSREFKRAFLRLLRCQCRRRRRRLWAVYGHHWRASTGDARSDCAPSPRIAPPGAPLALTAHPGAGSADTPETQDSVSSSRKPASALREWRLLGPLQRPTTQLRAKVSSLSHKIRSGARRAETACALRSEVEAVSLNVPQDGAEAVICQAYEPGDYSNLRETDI
T2 sequence (P43140 whole entry): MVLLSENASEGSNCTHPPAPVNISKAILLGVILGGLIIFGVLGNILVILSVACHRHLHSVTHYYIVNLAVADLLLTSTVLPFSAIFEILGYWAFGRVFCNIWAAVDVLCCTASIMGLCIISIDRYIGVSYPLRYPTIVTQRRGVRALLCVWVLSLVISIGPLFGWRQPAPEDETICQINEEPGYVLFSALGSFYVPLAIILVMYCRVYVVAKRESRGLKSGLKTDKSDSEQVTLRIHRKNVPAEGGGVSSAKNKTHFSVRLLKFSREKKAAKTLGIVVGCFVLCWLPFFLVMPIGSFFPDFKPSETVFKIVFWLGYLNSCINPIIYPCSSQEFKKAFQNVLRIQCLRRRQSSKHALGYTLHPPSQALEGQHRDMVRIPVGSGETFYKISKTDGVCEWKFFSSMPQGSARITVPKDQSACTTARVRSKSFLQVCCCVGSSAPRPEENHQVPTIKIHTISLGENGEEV
The assay can be described thus: Its affinity towards alpha-1 receptor using [3H]WB-4101 as radioligand in whole brain minus cerebellum. It counts as tissue-based.

Assay [3] deals with Rattus norvegicus. The assay can be described thus: Compound was evaluated in vivo for its antipsychotic activity for inhibition of apomorphine-induced stereotypy in rat after intraperitoneal administration at a dose of 40 mg/kg. The conditions noted are these: ip. It is filed as functional.
Assay [4] deals with 5-hydroxytryptamine receptor 2A (Rattus norvegicus, UniProt P14842). The assay can be described thus: In vitro affinity towards 5-hydroxytryptamine 2A receptor using [3H]spiroperidol as radioligand in cortex.
For assay [5], the system named is Mus musculus. The assay can be described thus: In vivo effective dose for inhibition of apomorphine-induced climbing in mice after intraperitoneal administration at a dose 20 mg/kg. It counts as functional. The following applies: ip.
Assay [6] relates to Rattus norvegicus. The experiment in a line: Compound evaluated in vivo for its antipsychotic activity for inhibition of apomorphine-induced stereotypy in rat after intraperitoneal administration of a dose of 13 mg/kg. It is filed as functional. The conditions noted are these: ip.
The subject of assay [7] is Mus musculus. The experiment in a line: In vivo for its effective dose for inhibition of apomorphine-induced climbing in mice after intraperitoneal administration at a dose 20 mg/kg. It is filed as functional. The conditions noted are these: ip.
Assay [8] has as its system Rattus norvegicus. The assay can be described thus: Compound was evaluated in vivo for its antipsychotic activity for inhibition of apomorphine-induced stereotypy in rat. It counts as functional.

Chain of 5-hydroxytryptamine receptor 2A (P14842 whole entry): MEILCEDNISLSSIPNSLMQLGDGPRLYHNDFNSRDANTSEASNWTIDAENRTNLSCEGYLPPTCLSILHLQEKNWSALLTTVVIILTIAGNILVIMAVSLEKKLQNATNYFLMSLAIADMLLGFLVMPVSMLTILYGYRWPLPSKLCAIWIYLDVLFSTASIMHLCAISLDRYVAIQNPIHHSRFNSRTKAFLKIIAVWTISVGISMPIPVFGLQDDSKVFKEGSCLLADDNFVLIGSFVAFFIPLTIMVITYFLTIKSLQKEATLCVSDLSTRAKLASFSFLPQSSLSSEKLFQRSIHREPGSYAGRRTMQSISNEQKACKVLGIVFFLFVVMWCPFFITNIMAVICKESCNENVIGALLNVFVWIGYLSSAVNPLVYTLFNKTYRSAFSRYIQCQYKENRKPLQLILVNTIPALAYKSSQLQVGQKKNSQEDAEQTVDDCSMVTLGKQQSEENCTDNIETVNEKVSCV

Take `O=C(NCCCCN1CCN(c2nsc3ccccc23)CC1)c1nsc2ccccc12`: the IC50 in assay [1] worked out at 0.018 µM; in assay [2] it was 0.005 µM; in assay [4], 0.201 µM. The molecule also gave an inhibition in vivo at 40 mg/kg with Rattus norvegicus [3] of 17%.

In the case of `CN(CCN1CCC(c2noc3cc(F)ccc23)CC1)C(=O)c1nsc2ccccc12`, the IC50 is 0.82 µM in assay [1], 0.0094 µM in assay [2] and 0.0328 µM in assay [4]. In addition, the 50% effect level in the assay with Mus musculus [5] (ED50) was put at a dose of 1.7 mg/kg. The molecule further had an inhibition in vivo at 13 mg/kg in the assay on Rattus norvegicus [6] of 50%.

With `CN(CCCCN1CCN(c2nsc3ccccc23)CC1)C(=O)c1nsc2ccccc12`, the IC50 came out at 0.0186 µM in assay [1], 0.0058 µM in assay [2] and 0.013 µM in assay [4]. Besides, the ED50 in the assay with Mus musculus [7] was found to be 2.49 mg/kg; in the assay on Rattus norvegicus [8] it was 39.2 mg/kg.
